Legend:
PMA induced ear oedema = test: Phorbol 12-myristate 13-acetate induced ear oedema in CD1 mice; format: in vivo
Description: Male CD1 mice (Iffa Credo, France) weighing 30-40 g were randomly grouped (n=6 in test group of which the untreated ear served as negative control; 6 in positive control group which also served as their own negative control group). Test compounds, as well as vehicle (Trans-phase Delivery System, containing benzyl alcohol 10%, acetone 40% and isopropanol 50%) (all from Kemika, Croatia), were administered topically to the internal surface of the left ear thirty minutes prior to administration of phorbol 12-myristate 13-acetate (PMA) (Sigma, USA). Test compounds were administered at a dose of 100, 250 or 500 μg/15 μL/ear. Thirty minutes later, 0.01% PMA solution in acetone was applied topically to the inner surface of the left ear of each animal in a volume of 12 μL/ear. During the treatment and challenge (stimulation), animals were anaesthetized with anaesthesia by inhalation. Six hours following challenge, animals were euthanized by intraperitoneal thiopental injection (PLIVA, Croatia). For assessing the auricular oedema, 8 mm discs were cut out of left and right auricular pinna and weighed. The degree of oedema was calculated by subtracting the weight of 8 mm disc of the untreated ear from that of the treated contralateral ear. The inhibition of oedema in the treated animals, presented in the Table 8, is expressed as percentage compared to control mice (0%).

LPS-induced septic shock = test: Septic shock induced by bacterial lipopolysaccharide in male BALB/cJ mice; format: in vivo; conditions: 24 hours
Description: Male BALB/cJ mice, (Iffa Credo, Lyon, France) 8 weeks old, weighing 25 g were randomly grouped (n=10 in testing groups and 15 in control group). Animals were primed with 4 μg bacterial lipopolysaccharide (LPS) that was dissolved in saline and administered i.pl. After 18-24 hours animals were challenged by an intravenous injection of 90 μg LPS in a volume of 0.2 mL. Animals were treated with the test compounds or the vehicle (control) intraperitoneally . . . or per os 30 min prior to each injection of LPS. Survival throughout 24 hours was monitored.

SMILES	Oedema (% inhibition) (PMA induced ear oedema; 100 μg/ear topical) [%]	Oedema (% inhibition) (PMA induced ear oedema; 250 μg/ear topical) [%]	Oedema (% inhibition) (PMA induced ear oedema; 500 μg/ear topical) [%]	Survival (%) (LPS-induced septic shock; 1 mg/kg p.o.)	Survival (%) (LPS-induced septic shock; 10 mg/kg p.o.)	Survival (%) (LPS-induced septic shock; 100 mg/kg p.o.)	Survival (%) (LPS-induced septic shock; 10 mg/kg i.p.)
CC[C@H]1OC(=O)[C@H](C)[C@@H](O[C@H]2C[C@@](C)(OC)[C@@H](O)[C@H](C)O2)[C@H](C)[C@@H](O[C@@H]2O[C@H](C)C[C@H](N(C)C)[C@H]2O)[C@](C)(O)C[C@@H](C)CN(C)[C@H](C)[C@@H](O)[C@]1(C)O [azithromycin, reference compound]	0	83	90	30	60	70	
CCC1OC(=O)C(C)C(OC2CC(C)(OC)C(OC(=O)CCN(CC)CC)C(C)O2)C(C)C(OC2OC(C)CC(N(C)C)C2O)C(C)(OC)CC(C)C(=O)NC(C)C(O)C1(C)O (centres unmarked) [Example 8, 4″-O-(3-Diethylamino-propionyl)-6-O-methyl-9a-aza-9a-homoerythromycin A]	54	74	94			100	50

Reference: patent publication US8080529B2, “Macrolides with anti-inflammatory activity” (Glaxo Group Limited, priority 2005, dated 2011)
